Assay results as given in the supplement of paper PMC11562712.
Counter-ions that a name gives are not always drawn.

Test: first-order primary biodegradation rate constant k (sorption-corrected, fDis-corrected) (d-1); higher = faster biodegradation
Procedure, shortened: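 Each of 129 compounds was spiked at 1 μg L^–1 into river water containing sieved sediment (50 g wet solid L^–1) from German, Swiss, Spanish and Greek river segments, then shaken in darkness at 20.5 ± 3.5 °C, the river water temperature, for 10 days in three replicates. Filtered samples of the water phase were measured by ultra-high-performance liquid chromatography coupled to Orbitrap tandem mass spectrometry. First-order k values came from log peak-area regression, corrected for sorption-control dissipation under azide sterilisation and divided by dissolved fraction, and invalid fits were left out.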

[1] = river segment: Germany (DE) T_Contam, incubation temperature 24 °C
[2] = river segment: Greece (EL) G_Pris, incubation temperature 19 °C
[3] = river segment: Switzerland (CH) U_Contam, incubation temperature 17 °C
[4] = river segment: Germany (DE) H_Contam, incubation temperature 24 °C
[5] = river segment: Germany (DE) T_Pris, incubation temperature 24 °C
[6] = river segment: Greece (EL) A_Contam, incubation temperature 19 °C
[7] = river segment: Greece (EL) G_Contam, incubation temperature 19 °C
[8] = river segment: Greece (EL) L_Contam, incubation temperature 19 °C
[9] = river segment: Spain (ES) L_Contam, incubation temperature 24 °C
[10] = river segment: Spain (ES) B_Contam, incubation temperature 24 °C
[11] = river segment: Spain (ES) C_Contam, incubation temperature 24 °C
[12] = river segment: Spain (ES) F_Pris_Salt, incubation temperature 24 °C
[13] = river segment: Switzerland (CH) U_Pris, incubation temperature 17 °C
[14] = river segment: Switzerland (CH) C_Contam, incubation temperature 17 °C
[15] = river segment: Switzerland (CH) R_Contam, incubation temperature 17 °C

| SMILES | first-order primary biodegradation rate constant k [1] | first-order primary biodegradation rate constant k [2] | first-order primary biodegradation rate constant k [3] | first-order primary biodegradation rate constant k [4] | first-order primary biodegradation rate constant k [5] | first-order primary biodegradation rate constant k [6] | first-order primary biodegradation rate constant k [7] | first-order primary biodegradation rate constant k [8] | first-order primary biodegradation rate constant k [9] | first-order primary biodegradation rate constant k [10] | first-order primary biodegradation rate constant k [11] | first-order primary biodegradation rate constant k [12] | first-order primary biodegradation rate constant k [13] | first-order primary biodegradation rate constant k [14] | first-order primary biodegradation rate constant k [15] |
| --- | --- | --- | --- | --- | --- | --- | --- | --- | --- | --- | --- | --- | --- | --- | --- |
| CN(C)C(=O)Oc1cccc([N+](C)(C)C)c1 [Neostigmine] | 0.101 | 0.0309 | 0.486 | – | – | – | – | – | – | – | – | – | – | – | – |
| COc1ccc(NC(=O)N(C)C)cc1Cl [Metoxuron] | 0.106 | 0.333 | 0.022 | 0.0437 | 0.0159 | 0.209 | 0.0278 | 0.0742 | 0.0285 | – | – | – | – | – | – |
| COC(=O)Nc1nc2ccccc2[nH]1 [Carbendazim] | 0.155 | 0.0594 | 0.0106 | 0.0157 | 0.00648 | 0.1 | – | – | 0.0322 | 0.0208 | 0.00806 | 0.03 | 0.0192 | – | – |
| CCOc1nc2cccc(C(=O)O)c2n1Cc1ccc(-c2ccccc2-c2nnn[nH]2)cc1 [Candesartan] | – | – | – | – | – | 0.00917 | 0.398 | – | – | – | – | – | 0.00966 | – | – |
| CCc1cccc(C)c1N(C(=O)CCl)C(C)COC (stereo not drawn) [Metolachlor] | 0.0409 | – | 0.0398 | – | – | – | – | – | 0.167 | 0.0124 | 0.0203 | – | 0.0285 | 0.0161 | – |
| O=[N+]([O-])c1ccc(Cc2ccncc2)cc1 [4-(4-Nitrobenzyl)pyridine] | 1.05 | – | 1.95 | 0.499 | 0.446 | 1.09 | 1.68 | 1.94 | 1.1 | 0.863 | 0.301 | 0.146 | 2.28 | 0.314 | 0.45 |
| CC(=O)NC[C@H]1CN(c2ccc(N3CCOCC3)c(F)c2)C(=O)O1 [Linezolid] | 0.0934 | 0.308 | 0.0268 | 0.0119 | 0.0124 | 0.285 | 0.00542 | 0.262 | 0.0693 | 0.0257 | 0.0212 | – | 0.103 | 0.0127 | 0.0142 |
| CCOC(=O)CC(O)(CC(=O)OCC)C(=O)OCC [Triethyl citrate] | 0.275 | – | 0.127 | – | 0.0369 | – | – | – | 0.339 | – | – | – | 0.0638 | 0.00672 | 0.0597 |
| OC(Cn1cncn1)(Cn1cncn1)c1ccc(F)cc1F [Fluconazole] | 0.00573 | – | 0.00361 | 0.024 | – | – | 0.311 | 0.0588 | – | – | – | – | – | – | – |
| c1ccc2[nH]nnc2c1 [Benzotriazole] | 0.0507 | 0.0923 | 0.0122 | 0.0409 | 0.00553 | 0.316 | – | 2.87 | 0.208 | 0.0121 | 0.00219 | – | 0.0264 | – | 0.00612 |
| CC1(C(=O)Nc2ccc(O)c(Cl)c2Cl)CCCCC1 [Fenhexamid] | 0.656 | 0.641 | – | 0.151 | 0.165 | 0.189 | – | 0.493 | 0.189 | – | 0.109 | 0.0571 | 0.988 | – | 0.0432 |
| NS(=O)(=O)c1cc2c(cc1Cl)N=CNS2(=O)=O [Chlorothiazide] | 0.0266 | – | – | – | – | – | – | – | – | – | – | 0.166 | – | – | – |
| O=C(NCC1CCCCN1)c1cc(OCC(F)(F)F)ccc1OCC(F)(F)F (stereo not drawn) [Flecainide] | 0.116 | – | – | – | 0.0199 | 0.228 | 0.0658 | 0.0674 | 0.0814 | – | 1.31 | – | – | – | – |
| COC(=O)c1ccc(O)cc1 [Methylparaben] | 0.0815 | – | – | 0.119 | 0.1 | 0.106 | 0.0602 | 0.211 | – | – | 0.151 | 4.7 | 0.0832 | 0.175 | – |
| O=S(=O)(O)NC1CCCCC1 [Cyclamate] | 0.223 | – | 0.24 | 0.0317 | 0.0464 | 0.826 | – | 0.0837 | 1.66 | – | 0.261 | 0.0914 | 0.0988 | 0.205 | 0.379 |
| CC1(C)C[C@@H]1C(=O)N/C(=C\CCCCSC[C@H](N)C(=O)O)C(=O)O [Cilastatin] | 5.89 | 22 | 7.54 | 5.75 | 4.29 | 7.64 | 5.93 | 5.07 | 12.5 | 10.1 | 7.57 | 8.78 | 10.7 | 7.85 | 7.32 |
| CC(C)NCC(O)COc1cccc2ccccc12 (stereo not drawn) [Propranolol] | – | 0.0227 | 0.246 | 0.231 | 0.118 | – | 0.0886 | – | 0.303 | 0.309 | 0.539 | 0.0162 | 0.29 | 0.0688 | 0.251 |
| CCNc1nc(Cl)nc(NC(C)C)n1 [Atrazine] | 0.136 | – | 0.0313 | 0.0725 | 0.025 | 0.0312 | – | – | 0.451 | 0.103 | 0.0247 | – | 0.0218 | 0.0513 | – |
| Cc1ccc(C(C)NC(=O)[C@@H](NC(=O)OC(C)C)C(C)C)cc1 (stereo partly drawn) [Iprovalicarb] | 0.275 | 0.138 | 0.167 | 0.251 | 0.0361 | 0.258 | 0.16 | 0.096 | 0.203 | 0.211 | 0.115 | – | 0.146 | 0.0585 | 0.123 |
